Data from ChEMBL document CHEMBL4414660, “Effect of Modifier Structure on the Activation of Leukotriene A4 Hydrolase Aminopeptidase Activity” (J Med Chem, 2019).

Molecular target: T1, Leukotriene A-4 hydrolase (Homo sapiens, UniProt P09960)
T1 sequence (P09960 whole entry): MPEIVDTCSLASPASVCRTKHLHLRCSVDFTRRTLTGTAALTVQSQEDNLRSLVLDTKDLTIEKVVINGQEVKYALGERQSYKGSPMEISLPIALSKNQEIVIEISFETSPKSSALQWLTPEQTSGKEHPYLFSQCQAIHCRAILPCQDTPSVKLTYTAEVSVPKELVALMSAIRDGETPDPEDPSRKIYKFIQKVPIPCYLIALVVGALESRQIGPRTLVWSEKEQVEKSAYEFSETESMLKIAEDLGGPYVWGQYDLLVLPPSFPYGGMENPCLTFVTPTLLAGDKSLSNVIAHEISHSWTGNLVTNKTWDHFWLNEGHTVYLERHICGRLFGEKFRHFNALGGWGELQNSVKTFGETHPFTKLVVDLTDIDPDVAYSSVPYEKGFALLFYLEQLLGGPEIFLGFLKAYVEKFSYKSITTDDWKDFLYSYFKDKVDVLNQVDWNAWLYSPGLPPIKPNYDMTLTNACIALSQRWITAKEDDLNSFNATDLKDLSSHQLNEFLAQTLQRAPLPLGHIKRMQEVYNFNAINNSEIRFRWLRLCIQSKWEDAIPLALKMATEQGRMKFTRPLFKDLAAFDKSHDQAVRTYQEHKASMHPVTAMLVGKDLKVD
Assay: Inhibition of N-terminal (His)6 and Xpress-tagged LTA4H (unknown origin) expressed in Escherichia coli BL21(DE3) cells assessed as reduction in aminopeptidase activity by measuring p-nitroanilide release using L-Alanine-p-nitroanilide incubated for 10 mins by UV plate reader based assay

## Nc1nc(-c2ccc(Cc3ccccc3C(F)(F)F)cc2)cs1
  IC50: 8.35 µM
